# Measured values taken from patent US11331299B2, “Medicinal use of serrulatane diterpenes” (The University of Sydney, priority 2016, dated 2022).
# Like-named read-outs stand apart in the source and are kept apart here.
# Tested on: 280 human cancer cell lines
# Assay: OncoPanel cell proliferation assay (10-day)
# Format: cell-based
# Conditions: for EC50: read-out: Cell Count EC50; for IC50: read-out: Cell Count IC50
# [1] = Homo sapiens, 22Rv1, 22Rv1, Prostate
# [2] = Homo sapiens, 786-0, 786-O, Kidney
# [3] = Homo sapiens, A7, Skin (Melanoma)
# [4] = Homo sapiens, A 172, A172, CNS - Glioma
# [5] = Homo sapiens, A253, A-253, Head and Neck
# [6] = Homo sapiens, A388, Head and Neck
# [7] = Homo sapiens, A498, A498, Kidney
# [8] = Homo sapiens, A549, A549, Lung - NSCLC
# [9] = Homo sapiens, A673, A-673, Soft Tissue - Sarcoma
# [10] = Homo sapiens, A704, A-704, Kidney
# [11] = Homo sapiens, A-375, A375, Skin (Melanoma)
# [12] = Homo sapiens, A-427, A427, Lung - NSCLC
# [13] = Homo sapiens, A-431, A431, Head and Neck
# [14] = Homo sapiens, AN3-CA, AN3 CA, Female GU - Uterus
# [15] = Homo sapiens, ARH-77, ARH-77, Myeloma
# [16] = Homo sapiens, ASPC1, AsPC-1, Pancreas
# [17] = Homo sapiens, AU565, AU565, Breast
# [18] = Homo sapiens, BCP-1, BCP-1, Lymphoma
# [19] = Homo sapiens, BE(2)-C, BE(2)C, CNS - Neuroblastoma
# [20] = Homo sapiens, BFTC-905, BFTC-905, Bladder
# [21] = Homo sapiens, BHT-101, BHT-101, Endocrine - Thyroid
# [22] = Homo sapiens, BM-1604, BM-1604, Prostate
# [23] = Homo sapiens, BPH-1, BPH1, Prostate
# [24] = Homo sapiens, BT-20, BT20, Breast
smiles,measurement,setting,value
"CC(C)=CCC[C@H](CO)[C@@H]1CC[C@@H](C)c2c1cc(C)c(O)c2O [Compound 1, 7,8,18-trihydroxyserrulat-14-ene]","Number of cell types, GI Activity Potent","GI50 range 0.03-0.099 μM, of 280 cell types",0
same,"Number of cell types, GI Activity moderately potent","GI50 range 0.1-0.99 μM, of 280 cell types",23
same,"Number of cell types, GI Activity Strong","GI50 range 1-2.99 μM, of 280 cell types",149
same,"Number of cell types, GI Activity moderately strong","GI50 range 3-9.99 μM, of 280 cell types",99
same,"Number of cell types, GI Activity weak","GI50 range 10-30.00 μM, of 280 cell types",6
same,"Number of cell types, GI Activity very weak","GI50 range >30 μM, of 280 cell types",1
same,EC50,[1],4.08 µM
same,GI50,"Homo sapiens, 22Rv1, 22Rv1, Prostate, read-out: Cell Count GI50",4.06 µM
same,IC50,[1],4.08 µM
same,GI50,"Homo sapiens, 149 cell lines with strong activity, read-out: GI50",1 to 2.98 µM
same,GI50,"Homo sapiens, 174 cell lines with very potent to strong activity, read-out: GI50",0.006 to 2.98 µM
same,EC50,"Homo sapiens, 647-V, Bladder",3.12 µM
same,GI50,"Homo sapiens, 647-V, Bladder, read-out: Cell Count GI50",3.11 µM
same,IC50,"Homo sapiens, 647-V, Bladder",3.12 µM
same,EC50,"Homo sapiens, 769-P, Kidney",0.85 µM
same,GI50,"Homo sapiens, 769-P, Kidney, read-out: Cell Count GI50",0.85 µM
same,IC50,"Homo sapiens, 769-P, Kidney",0.85 µM
same,EC50,[2],2.05 µM
same,GI50,"Homo sapiens, 786-0, 786-O, Kidney, read-out: Cell Count GI50",2.05 µM
same,IC50,[2],2.05 µM
same,EC50,"Homo sapiens, 5637, Bladder",3.38 µM
same,GI50,"Homo sapiens, 5637, Bladder, read-out: Cell Count GI50",3.32 µM
same,IC50,"Homo sapiens, 5637, Bladder",3.38 µM
same,EC50,[3],0.94 µM
same,GI50,"Homo sapiens, A7, Skin (Melanoma), read-out: Cell Count GI50",0.94 µM
same,IC50,[3],0.94 µM
same,EC50,"Homo sapiens, A101D",8.42 µM
same,GI50,"Homo sapiens, A101D, read-out: Cell Count GI50",8.25 µM
same,IC50,"Homo sapiens, A101D",8.42 µM
same,EC50,[4],1.12 µM
same,GI50,"Homo sapiens, A 172, A172, CNS - Glioma, read-out: Cell Count GI50",1.14 µM
same,IC50,[4],1.15 µM
same,EC50,[5],4.13 µM
same,GI50,"Homo sapiens, A253, A-253, Head and Neck, read-out: Cell Count GI50",4.13 µM
same,IC50,[5],4.14 µM
same,EC50,[6],1.66 µM
same,GI50,"Homo sapiens, A388, Head and Neck, read-out: Cell Count GI50",1.66 µM
same,IC50,[6],1.67 µM
same,EC50,[7],1.29 µM
same,GI50,"Homo sapiens, A498, A498, Kidney, read-out: Cell Count GI50",1.29 µM
same,IC50,[7],1.29 µM
same,EC50,[8],1.66 µM
same,GI50,"Homo sapiens, A549, A549, Lung - NSCLC, read-out: Cell Count GI50",1.66 µM
same,IC50,[8],1.67 µM
same,EC50,[9],1.54 µM
same,GI50,"Homo sapiens, A673, A-673, Soft Tissue - Sarcoma, read-out: Cell Count GI50",1.54 µM
same,IC50,[9],1.55 µM
same,EC50,[10],1.57 µM
same,GI50,"Homo sapiens, A704, A-704, Kidney, read-out: Cell Count GI50",1.54 µM
same,IC50,[10],1.6 µM
same,EC50,[11],1.05 µM
same,GI50,"Homo sapiens, A-375, A375, Skin (Melanoma), read-out: Cell Count GI50",1.05 µM
same,IC50,[11],1.05 µM
same,EC50,[12],4.52 µM
same,GI50,"Homo sapiens, A-427, A427, Lung - NSCLC, read-out: Cell Count GI50",4.5 µM
same,IC50,[12],4.52 µM
same,EC50,[13],2.8 µM
same,GI50,"Homo sapiens, A-431, A431, Head and Neck, read-out: Cell Count GI50",2.8 µM
same,IC50,[13],2.81 µM
same,EC50,"Homo sapiens, ACHN, Kidney",1.74 µM
same,GI50,"Homo sapiens, ACHN, Kidney, read-out: Cell Count GI50",1.74 µM
same,IC50,"Homo sapiens, ACHN, Kidney",1.74 µM
same,EC50,"Homo sapiens, AGS, Stomach",0.7 µM
same,GI50,"Homo sapiens, AGS, Stomach, read-out: Cell Count GI50",0.7 µM
same,IC50,"Homo sapiens, AGS, Stomach",0.7 µM
same,EC50,[14],1.52 µM
same,GI50,"Homo sapiens, AN3-CA, AN3 CA, Female GU - Uterus, read-out: Cell Count GI50",1.49 µM
same,IC50,[14],1.52 µM
same,EC50,[15],1.95 µM
same,GI50,"Homo sapiens, ARH-77, ARH-77, Myeloma, read-out: Cell Count GI50",1.95 µM
same,IC50,[15],1.97 µM
same,EC50,[16],2.87 µM
same,GI50,"Homo sapiens, ASPC1, AsPC-1, Pancreas, read-out: Cell Count GI50",2.84 µM
same,IC50,[16],2.87 µM
same,EC50,[17],1.62 µM
same,GI50,"Homo sapiens, AU565, AU565, Breast, read-out: Cell Count GI50",1.61 µM
same,IC50,[17],1.62 µM
same,EC50,"Homo sapiens, BC-1, Lymphoma",1.52 µM
same,GI50,"Homo sapiens, BC-1, Lymphoma, read-out: Cell Count GI50",1.51 µM
same,IC50,"Homo sapiens, BC-1, Lymphoma",1.52 µM
same,EC50,[18],3.18 µM
same,GI50,"Homo sapiens, BCP-1, BCP-1, Lymphoma, read-out: Cell Count GI50",3.14 µM
same,IC50,[18],3.18 µM
same,EC50,[19],4.23 µM
same,GI50,"Homo sapiens, BE(2)-C, BE(2)C, CNS - Neuroblastoma, read-out: Cell Count GI50",4.18 µM
same,IC50,[19],4.23 µM
same,EC50,[20],1.79 µM
same,GI50,"Homo sapiens, BFTC-905, BFTC-905, Bladder, read-out: Cell Count GI50",1.78 µM
same,IC50,[20],1.79 µM
same,EC50,[21],2.16 µM
same,GI50,"Homo sapiens, BHT-101, BHT-101, Endocrine - Thyroid, read-out: Cell Count GI50",2.17 µM
same,IC50,[21],2.17 µM
same,EC50,[22],2.58 µM
same,GI50,"Homo sapiens, BM-1604, BM-1604, Prostate, read-out: Cell Count GI50",2.56 µM
same,IC50,[22],2.58 µM
same,EC50,[23],5.24 µM
same,GI50,"Homo sapiens, BPH-1, BPH1, Prostate, read-out: Cell Count GI50",5.2 µM
same,IC50,[23],5.24 µM
same,EC50,[24],1.59 µM
same,GI50,"Homo sapiens, BT-20, BT20, Breast, read-out: Cell Count GI50",1.53 µM
same,IC50,[24],1.61 µM
